Experimental data as given in ChEMBL document CHEMBL5120799, “A Nrf-2 Stimulatory Hydroxylated Cannabidiol Derivative from Hemp (Cannabis sativa)” (J Nat Prod, 2022).
Activity calls are given as the source filed them. The rule behind the calls is not given here.

Columns and labels:
[1] = molecular target: T1, Nuclear factor erythroid 2-related factor 2 (Homo sapiens) (UniProt Q16236); test: Activation of Nrf2 transcriptional activity in human HaCaT-ARE-Luc cells at 1 to 25 uM incubated for 6 hrs by luciferase activity assay; format: cell-based; conditions: filed as activator, dose 1-25 µM
T1 sequence (whole entry): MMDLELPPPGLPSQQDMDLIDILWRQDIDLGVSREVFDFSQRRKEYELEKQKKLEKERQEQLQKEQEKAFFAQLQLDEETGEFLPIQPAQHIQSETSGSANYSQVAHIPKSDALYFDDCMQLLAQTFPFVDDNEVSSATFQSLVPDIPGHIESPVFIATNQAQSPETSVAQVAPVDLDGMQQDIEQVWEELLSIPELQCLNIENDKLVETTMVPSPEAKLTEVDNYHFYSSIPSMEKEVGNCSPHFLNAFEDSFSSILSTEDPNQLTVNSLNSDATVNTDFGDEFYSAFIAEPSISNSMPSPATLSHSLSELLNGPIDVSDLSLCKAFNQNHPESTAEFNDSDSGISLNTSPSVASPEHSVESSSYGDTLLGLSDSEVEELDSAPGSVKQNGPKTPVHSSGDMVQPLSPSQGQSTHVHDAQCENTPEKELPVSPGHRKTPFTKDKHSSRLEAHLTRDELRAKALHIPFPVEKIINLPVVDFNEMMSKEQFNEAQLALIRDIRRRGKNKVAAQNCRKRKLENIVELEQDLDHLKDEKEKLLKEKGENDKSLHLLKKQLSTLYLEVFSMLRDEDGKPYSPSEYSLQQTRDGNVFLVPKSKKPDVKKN

[2] = molecular target: T1, Nuclear factor erythroid 2-related factor 2 (Homo sapiens); test: Activation of Nrf2 transcriptional activity in human HaCaT-ARE-Luc cells at 1 uM incubated for 6 hrs by luciferase activity assay relative to control; format: cell-based
[3] = molecular target: T1, Nuclear factor erythroid 2-related factor 2 (Homo sapiens); test: Activation of Nrf2 transcriptional activity in human HaCaT-ARE-Luc cells at 10 uM incubated for 6 hrs by luciferase activity assay relative to control; format: cell-based; conditions: filed as activator
[4] = molecular target: T1, Nuclear factor erythroid 2-related factor 2 (Homo sapiens); test: Activation of Nrf2 transcriptional activity in human HaCaT-ARE-Luc cells at 25 uM incubated for 6 hrs by luciferase activity assay relative to control; format: cell-based; conditions: filed as activator
[5] = system: HaCaT; test: Inhibition of TBHP-induced ROS production in human HaCaT cells assessed as reduction on intracellular ROS level at 25 uM pretreated for 30 mins followed by TBHP stimulation and measured after 3 hrs by DCFH2-DA staining analysis; format: functional, cell-based; conditions: time 3.5 hrs
[6] = system: HaCaT; test: Inhibition of TBHP-induced ROS production in human HaCaT cells assessed as reduction on intracellular ROS level at 1 to 25 uM pretreated for 30 mins followed by TBHP stimulation and measured after 3 hrs by DCFH2-DA staining analysis; format: functional, cell-based; conditions: dose 1-25 µM, time 3.5 hrs, DDE = dose-dependent effect

Structure (SMILES) | Activity [1] | Activity [2] | Activity [3] | Activity [4] | inhibition [5] | inhibition [6]
C=C(C)[C@@H]1CCC(C)=C[C@H]1c1c(O)cc(CCCCC)cc1O | Active | – | – | – | – | –
C=C1CC[C@@H](C(=C)C)[C@H](c2c(O)cc(CCCCC)cc2O)[C@H]1O | – | 20% | 144% | 202% | Active | Dde
